We go through 13 compounds from patent publication US20260183274A1, “PDK1 REGULATORY COMPOUND AND COMPOSITION CONTAINING THE SAME” (PROVIBIO CO., LTD., priority 2024, published 2026).

For data set [1], the system named is T cells isolated from mouse spleens. The experiment in a line: T cell proliferation inhibition (CFSE flow cytometry, anti-CD3/anti-CD28 stimulation). It counts as cell-based. To be noted: mouse spleen T cells, 3 days; for inhibition at 0.01 µM / inhibition at 0.1 µM / inhibition at 1 µM / inhibition at 10 µM / inhibition at 30 µM / inhibition at 50 µM: Mus musculus, T-cell, 72 h, read-out: Proliferation inhibition rate (%). Put shortly: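 Proliferation inhibition (%) came from flow cytometry of CFSE dilution after 3 days' culture at 37 °C with compound (10 nM, 100 nM, 1, 10, 30, 50 μM; triplicate wells). Cells were magnetically purified T cells from C57BL/6 mouse spleens, 2×10^5 per well, stimulated with 0.5 μg/mL each anti-CD3 and anti-CD28.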
(In flow cytometry, cells or beads pass a laser one at a time.)

In data set [2] the test system is Human B Lymphocyte cell line, SU-DHL-8. The experiment in a line: Relative cell viability CCK-8, SU-DHL-8. Format: cell-based. The conditions noted are these: for viability at 1 µM / viability at 10 µM / viability at 30 µM / viability at 50 µM: Homo sapiens, SU-DHL-8, 48 h; for viability at 1 µM: read-out: Relative cell viability (%), SU-DHL-8, 1 μM; for viability at 10 µM: read-out: Relative cell viability (%), SU-DHL-8, 10 μM; for viability at 30 µM: read-out: Relative cell viability (%), SU-DHL-8, 30 μM; for viability at 50 µM: read-out: Relative cell viability (%), SU-DHL-8, 50 μM. The method, boiled down:
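Cells grown in RPMI-1640 with 10% FBS, treated with compound at several concentrations, then given CCK-8 for 4 h at 37° C. Viability expressed as percent of DMSO-treated cells.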

[3] abbreviates: 1 μM, 48 hours, untreated (DMSO) = 100%.
The mark [4] stands for this setting: 10 μM, 48 hours, untreated (DMSO) = 100%.
The mark [5] stands for this setting: 30 μM, 48 hours, untreated (DMSO) = 100%.
Where [6] appears, read: 50 μM, 48 hours, untreated (DMSO) = 100%.
The mark [7] stands for this setting: 48 hours, untreated (DMSO) = 100%.

For the compound `CC1CCCN(CCCCCCCCCCCCNC(=O)c2cccnc2N)CC1` (centres unmarked) [Compound 39, 2-Amino-N-(12-(4-methylazepan-1-yl)dodecyl) nicotinamide], the “Proliferation inhibition rate (%)” value in data set [1] (compound 10 nM) is reported as −58.92%; in data set [1] (compound 100 nM), 100.00%; in data set [1] (compound 1 μM), 100.00%; in data set [1] (compound 10 μM), 100.00%; in data set [1] (compound 30 μM) it was 100.00%; in data set [1] (compound 50 μM), 100.00%. Moreover, the “Relative cell viability (%), SU-DHL-8” value in data set [2] (setting [3]) is 11.48%; in data set [2] (setting [4]) it was 8.41%; in data set [2] (setting [5]) it was 6.24%; in data set [2] (setting [6]) it was 4.27%.

As for `Nc1ncccc1C(=O)NCCCCCCCCCCCCN1CCC(Oc2ccncc2)CC1` [Compound 38, 2-Amino-N-(12-(4-(pyridin-4-yloxy)piperidin-1-yl)dodecyl) nicotinamide], the “Proliferation inhibition rate (%)” value was −33.51% in data set [1] (compound 10 nM); 100.00% in data set [1] (compound 100 nM); 100.00% in data set [1] (compound 1 μM); 100.00% in data set [1] (compound 10 μM); 100.00% in data set [1] (compound 30 μM); 100.00% in data set [1] (compound 50 μM). Further, the “Relative cell viability (%), SU-DHL-8” value in data set [2] (setting [3]) was 4.16%; in data set [2] (setting [4]), 3.30%; in data set [2] (setting [5]), 1.79%; in data set [2] (setting [6]) it was 1.42%.

In the case of `Nc1ccncc1C(=O)NCCCCCCCCCCCCF` [Compound 73, 4-Amino-N-(12-fluoro-dodecyl)-nicotinamide], the inhibition at 0.01 µM in data set [1] (compound 10 nM) is -6.44%. Besides, the inhibition at 0.1 µM in data set [1] (compound 100 nM) turned out to be 5.75%. Further, in data set [1] (compound 1 μM), the inhibition at 1 µM is 7.4%. Further, in data set [1] (compound 10 μM), the inhibition at 10 µM amounted to 84.8%. In addition, the inhibition at 30 µM in data set [1] (compound 30 μM) is 100%. For the same compound, the inhibition at 50 µM in data set [1] (compound 50 μM) came out at 100%. For the same compound, in data set [2] (setting [7]), the viability at 1 µM is 11.9%, the viability at 10 µM came to 5.03%, the viability at 30 µM was 0.98% and the viability at 50 µM turned out to be 0.91%.

As for `Cc1ccc(C2CCN(CCCCCCCCCCCCNC(=O)c3cccnc3N)CC2)cc1` [Compound 55, 2-Amino-N-(12-(4-(p-tolyl)piperidin-1-yl)dodecyl) nicotinamide], the “Proliferation inhibition rate (%)” value in data set [1] (compound 10 nM) turned out to be 89.67%; in data set [1] (compound 100 nM) it was 100.00%; in data set [1] (compound 1 μM) it was 100.00%; in data set [1] (compound 10 μM), 100.00%; in data set [1] (compound 30 μM), 100.00%; in data set [1] (compound 50 μM), 100.00%. In addition, the “Relative cell viability (%), SU-DHL-8” value in data set [2] (setting [3]) is given as 9.36%; in data set [2] (setting [4]), 4.92%; in data set [2] (setting [5]), 1.10%; in data set [2] (setting [6]), 0.97%.

`Nc1ncccc1C(=O)NCCCCCCCCCCCCN1CC2CCCC2C1` (centres unmarked) [Compound 46, 2-Amino-N-(12-(hexahydrocyclopenta[c]pyrrol-2 (1H)-yl)dodecyl)nicotinamide]: in data set [1] (compound 10 nM), the inhibition at 0.01 µM is -10.5%. Further, the inhibition at 0.1 µM in data set [1] (compound 100 nM) amounted to 100%. Moreover, the inhibition at 1 µM in data set [1] (compound 1 μM) came to 100%. Moreover, the inhibition at 10 µM in data set [1] (compound 10 μM) was 100%. In addition, the inhibition at 30 µM in data set [1] (compound 30 μM) was 100%. Further, the inhibition at 50 µM in data set [1] (compound 50 μM) is 100%. Also, in data set [2] (setting [7]), the viability at 1 µM was 4.8%, the viability at 10 µM is 2.44% and the viability at 30 µM was 2.08%. Besides, the “Relative cell viability (%), SU-DHL-8” value in data set [2] (human, 48 h, 50 µM) was −0.92%.

For `COC(=O)CN1CCN(CCCCCCCCCCCCC(=O)Nc2nc(N)c3[nH]cnc3n2)CC1` [Compound 7, 12-[4-(2-methoxy-2-oxoethyl)piperazin-1-yl]dodecyl-N-(6-aminopurine-2-yl) carboxamide], the inhibition at 0.01 µM in data set [1] (compound 10 nM) is 5.14%. Also, in data set [1] (compound 100 nM), the inhibition at 0.1 µM was found to be 100%. Besides, the inhibition at 1 µM in data set [1] (compound 1 μM) was 100%. For the same compound, the inhibition at 10 µM in data set [1] (compound 10 μM) is 100%. The inhibition at 30 µM in data set [1] (compound 30 μM) was 100%. Moreover, the inhibition at 50 µM in data set [1] (compound 50 μM) was 100%. In data set [2] (setting [7]), the viability at 1 µM is 5.17%, the viability at 10 µM was 4.16%, the viability at 30 µM was determined as 3.48% and the viability at 50 µM was found to be 3.17%.

As to `CN(C)CCN1CCN(CCCCCCCCCCCCNC(=O)c2cccnc2N)CC1` [Compound 33, 2-Amino-N-(12-(4-(2-(dimethylamino)ethyl)piperazin-1-yl)dodecyl)nicotinamide], the inhibition at 0.01 µM in data set [1] (compound 10 nM) is -36%. Besides, the inhibition at 0.1 µM in data set [1] (compound 100 nM) turned out to be 100%. In addition, the inhibition at 1 µM in data set [1] (compound 1 μM) worked out at 100%. Further, the inhibition at 10 µM in data set [1] (compound 10 μM) turned out to be 100%. Also, the inhibition at 30 µM in data set [1] (compound 30 μM) stood at 100%. Further, in data set [1] (compound 50 μM), the inhibition at 50 µM amounted to 100%. In data set [2] (setting [7]), the viability at 1 µM was determined as 10.1%, the viability at 10 µM was 4.32%, the viability at 30 µM stood at 3.35% and the viability at 50 µM amounted to 2.66%.

In the case of `CC1CNCCN1CCCCCCCCCCCCNC(=O)c1cccnc1N` (centres unmarked) [Compound 35, 2-Amino-N-(12-(2-methylpiperazin-1-yl)dodecyl) nicotinamide], the “Proliferation inhibition rate (%)” value was 8.33% in data set [1] (compound 10 nM); 100.00% in data set [1] (compound 100 nM); 100.00% in data set [1] (compound 1 μM); 100.00% in data set [1] (compound 10 μM); 100.00% in data set [1] (compound 30 μM); 100.00% in data set [1] (compound 50 μM). In addition, the figures for the “Relative cell viability (%), SU-DHL-8” value in data set [2] (setting [3]), in data set [2] (setting [4]) and in data set [2] (setting [5]) were 1.18%, 0.64% and 0.42%, respectively.

Take `Nc1ncccc1C(=O)NCCCCCCCCCCCCN1CCCCC1` [Compound 18, 2-amino-N-(12-(piperidin-1-yl)dodecyl)nicotinamide]: in data set [1] (compound 10 nM), the inhibition at 0.01 µM was determined as 1.87%. The inhibition at 0.1 µM in data set [1] (compound 100 nM) came out at 76.1%. For the same compound, the inhibition at 1 µM in data set [1] (compound 1 μM) worked out at 100%. The inhibition at 10 µM in data set [1] (compound 10 μM) is 100%. In addition, the inhibition at 30 µM in data set [1] (compound 30 μM) is 100%. In data set [1] (compound 50 μM), the inhibition at 50 µM worked out at 100%. Also, in data set [2] (setting [7]), the viability at 1 µM stood at 5.28%, the viability at 10 µM worked out at 4.5%, the viability at 30 µM worked out at 4.09% and the viability at 50 µM worked out at 3.44%.

As for `Nc1nc(NC(=O)CCCCCCCCCCCCN2CCNCC2)nc2nc[nH]c12` [Compound 8, 12-(piperazin-1-yl)dodecyl-N-(6-aminopurine-2-yl) carboxamide], the inhibition at 0.01 µM in data set [1] (compound 10 nM) is 4.55%. Further, the inhibition at 0.1 µM in data set [1] (compound 100 nM) worked out at 32.5%. Moreover, the inhibition at 1 µM in data set [1] (compound 1 μM) turned out to be 100%. Moreover, the inhibition at 10 µM in data set [1] (compound 10 μM) was found to be 100%. In addition, in data set [1] (compound 30 μM), the inhibition at 30 µM is 100%. In addition, the inhibition at 50 µM in data set [1] (compound 50 μM) came out at 100%. Further, in data set [2] (setting [7]), the viability at 1 µM was determined as 10.8%, the viability at 10 µM is 6.49%, the viability at 30 µM turned out to be 5.07% and the viability at 50 µM came out at 4.49%.

Consider `Nc1ncccc1C(=O)NCCCCCCCCF` [Compound 61, 2-Amino-N-(8-fluoro-octyl)-nicotinamide], for which, in data set [1] (compound 10 nM), the inhibition at 0.01 µM is -10.2%. Moreover, the inhibition at 0.1 µM in data set [1] (compound 100 nM) is -6.37%. Further, the inhibition at 1 µM in data set [1] (compound 1 μM) was -5.75%. For the same compound, in data set [1] (compound 10 μM), the inhibition at 10 µM was found to be 34.9%. In data set [1] (compound 30 μM), the inhibition at 30 µM came to 85.4%. For the same compound, the inhibition at 50 µM in data set [1] (compound 50 μM) stood at 93.2%. In data set [2] (setting [7]), the viability at 1 µM was 48.8%, the viability at 10 µM turned out to be 36.4%, the viability at 30 µM came to 42% and the viability at 50 µM amounted to 21%.

Turning to `Nc1nc(NC(=O)CCCCCCCCCCCCN2CCC(O)CC2)nc2nc[nH]c12` [Compound 9, 12-(4-hydroxypiperidin-1-yl)dodecyl-N-(6-aminopurine-2-yl) carboxamide], in data set [1] (compound 1 μM), the inhibition at 1 µM turned out to be 100%. Besides, the inhibition at 10 µM in data set [1] (compound 10 μM) stood at 100%. Besides, the inhibition at 30 µM in data set [1] (compound 30 μM) turned out to be 100%. Besides, in data set [1] (compound 50 μM), the inhibition at 50 µM amounted to 100%. In data set [1] (compound 10 nM, listed as GO83, 0.01 µM), the “Proliferation inhibition rate (%)” value came to 38.33%. In data set [2] (setting [7]), the viability at 1 µM is 5.32%, the viability at 10 µM was found to be 4.19%, the viability at 30 µM was 3.36% and the viability at 50 µM amounted to 3.14%.

As to `CC1CN(C(=O)OC(C)(C)C)C(C)CN1CCCCCCCCCCCCNC(=O)c1cccnc1N` (centres unmarked) [Compound 30, tert-Butyl 4-(12-(2-aminonicotinamido)dodecyl)-2,5-dimethylpiperazine-1-carboxylate], the inhibition at 0.01 µM in data set [1] (compound 10 nM) came out at 1.34%. In data set [1] (compound 100 nM), the inhibition at 0.1 µM came out at 100%. Besides, the inhibition at 1 µM in data set [1] (compound 1 μM) worked out at 100%. The inhibition at 10 µM in data set [1] (compound 10 μM) worked out at 100%. Besides, the inhibition at 30 µM in data set [1] (compound 30 μM) stood at 100%. Further, the inhibition at 50 µM in data set [1] (compound 50 μM) turned out to be 100%. Also, in data set [2] (setting [7]), the viability at 1 µM came out at 7.9%, the viability at 10 µM stood at 2.6%, the viability at 30 µM is 1.86% and the viability at 50 µM is 1.06%.

By viability is commonly meant a per cent measure of how many cells are alive, often set against a control.
